# Data reported in publication PMC12066708 (Communications Biology, 2025).
# Target: T1, Kell (Homo sapiens, UniProt P23276)
# T1 sequence (P23276 1-732): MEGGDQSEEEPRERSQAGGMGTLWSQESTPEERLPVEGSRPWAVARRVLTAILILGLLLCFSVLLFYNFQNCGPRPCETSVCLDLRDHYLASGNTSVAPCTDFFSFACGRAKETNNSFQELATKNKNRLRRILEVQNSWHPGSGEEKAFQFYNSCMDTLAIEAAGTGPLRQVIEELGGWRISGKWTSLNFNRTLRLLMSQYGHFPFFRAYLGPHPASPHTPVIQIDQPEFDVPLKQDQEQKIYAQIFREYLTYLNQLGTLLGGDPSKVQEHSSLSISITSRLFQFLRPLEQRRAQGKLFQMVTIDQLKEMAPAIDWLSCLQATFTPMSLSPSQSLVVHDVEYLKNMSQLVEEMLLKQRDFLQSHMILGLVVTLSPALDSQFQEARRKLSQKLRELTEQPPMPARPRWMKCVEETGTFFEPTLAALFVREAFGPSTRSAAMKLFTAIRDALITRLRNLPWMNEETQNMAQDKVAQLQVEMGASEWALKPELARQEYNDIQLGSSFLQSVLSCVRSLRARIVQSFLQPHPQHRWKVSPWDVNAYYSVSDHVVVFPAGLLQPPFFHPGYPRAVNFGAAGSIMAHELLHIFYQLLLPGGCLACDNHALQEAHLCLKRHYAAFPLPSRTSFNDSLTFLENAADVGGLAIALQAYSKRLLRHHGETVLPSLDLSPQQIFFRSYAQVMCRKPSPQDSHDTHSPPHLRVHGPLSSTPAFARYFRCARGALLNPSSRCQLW
# Test: microscale thermophoresis
# Format: binding
compound,measurement,value
O=C(O)CNC(=O)C(CS)Cc1ccccc1 (stereo not shown) [thiorphan],Kd,33 µM
